Data reported in article PMC10698726 (Molecular Pharmaceutics, 2023).
Read-outs that look alike come from different tables or passages of the source.

Assays:
[1] = target: T1, OCT1 (Homo sapiens, UniProt O15245); assay: Inhibition of model substrate uptake in OCT1-overexpressing HEK293 cells; assay type: cell-based; set-up: expressed in transfected cells; host or cells: HEK293; conditions: for IC50: read-out: IC50; for inhibition at 5 min, 20 μM / selectivity ratio at 5 min: OCT1-overexpressing HEK293 cells; for selectivity ratio at 5 min: ratio of the IC50 values of both isomers, label = isomer named in the cell (as a rule the one with the higher IC50), read-out: Stereoselectivity (x-fold for the named isomer)
T1 sequence (O15245 1-554): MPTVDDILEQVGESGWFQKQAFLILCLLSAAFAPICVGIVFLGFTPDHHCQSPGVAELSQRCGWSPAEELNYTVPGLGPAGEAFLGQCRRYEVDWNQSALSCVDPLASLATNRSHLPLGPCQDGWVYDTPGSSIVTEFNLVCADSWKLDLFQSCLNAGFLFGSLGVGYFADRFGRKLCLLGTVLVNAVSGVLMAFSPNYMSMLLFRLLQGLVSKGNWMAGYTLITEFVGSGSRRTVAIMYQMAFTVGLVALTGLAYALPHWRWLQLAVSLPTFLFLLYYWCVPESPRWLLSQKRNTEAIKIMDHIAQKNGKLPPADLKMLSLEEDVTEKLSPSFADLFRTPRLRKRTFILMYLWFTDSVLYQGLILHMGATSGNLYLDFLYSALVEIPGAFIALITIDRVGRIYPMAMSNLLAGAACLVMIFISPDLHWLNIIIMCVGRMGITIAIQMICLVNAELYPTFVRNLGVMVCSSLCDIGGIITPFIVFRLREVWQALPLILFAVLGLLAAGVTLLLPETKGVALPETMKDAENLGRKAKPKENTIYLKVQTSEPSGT
Protocol: Koepsell and Gorbulev (University of Würzburg, Germany).
Fluorescence quantification was performed in technical duplicates.

[2] = target: T2, OCT2 (Homo sapiens, UniProt O15244); assay: Inhibition of model substrate uptake in OCT2-overexpressing HEK293 cells; conditions: for inhibition at 5 min, 20 μM / (S,S)-Ethambutol inhibition [%] / ASP+ inhibition [%] / N-Ethyllidocaine inhibition [%]: OCT2, 20 μM inhibitor
T2 sequence (O15244 1-555): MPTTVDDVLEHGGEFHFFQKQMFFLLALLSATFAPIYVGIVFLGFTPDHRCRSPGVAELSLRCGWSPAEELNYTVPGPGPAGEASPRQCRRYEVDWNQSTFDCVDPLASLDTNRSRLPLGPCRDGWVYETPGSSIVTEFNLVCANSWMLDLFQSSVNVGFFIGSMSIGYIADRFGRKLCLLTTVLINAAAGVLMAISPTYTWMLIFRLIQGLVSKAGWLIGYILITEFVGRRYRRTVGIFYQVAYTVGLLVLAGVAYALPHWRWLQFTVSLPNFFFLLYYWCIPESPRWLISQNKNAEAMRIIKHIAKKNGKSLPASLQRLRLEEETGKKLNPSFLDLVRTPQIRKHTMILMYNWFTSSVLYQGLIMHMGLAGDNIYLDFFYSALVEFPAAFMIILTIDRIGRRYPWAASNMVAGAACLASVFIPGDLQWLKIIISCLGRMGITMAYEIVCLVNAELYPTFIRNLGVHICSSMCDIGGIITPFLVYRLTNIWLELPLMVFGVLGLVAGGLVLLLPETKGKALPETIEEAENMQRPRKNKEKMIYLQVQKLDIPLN

[3] = target: T3, OCT3 (Homo sapiens, UniProt O75751); assay: Inhibition of model substrate uptake in OCT3-overexpressing HEK293 cells; assay type: cell-based
T3 construct: expressed in transfected cells; host or cells: HEK293
T3 sequence (O75751 1-556): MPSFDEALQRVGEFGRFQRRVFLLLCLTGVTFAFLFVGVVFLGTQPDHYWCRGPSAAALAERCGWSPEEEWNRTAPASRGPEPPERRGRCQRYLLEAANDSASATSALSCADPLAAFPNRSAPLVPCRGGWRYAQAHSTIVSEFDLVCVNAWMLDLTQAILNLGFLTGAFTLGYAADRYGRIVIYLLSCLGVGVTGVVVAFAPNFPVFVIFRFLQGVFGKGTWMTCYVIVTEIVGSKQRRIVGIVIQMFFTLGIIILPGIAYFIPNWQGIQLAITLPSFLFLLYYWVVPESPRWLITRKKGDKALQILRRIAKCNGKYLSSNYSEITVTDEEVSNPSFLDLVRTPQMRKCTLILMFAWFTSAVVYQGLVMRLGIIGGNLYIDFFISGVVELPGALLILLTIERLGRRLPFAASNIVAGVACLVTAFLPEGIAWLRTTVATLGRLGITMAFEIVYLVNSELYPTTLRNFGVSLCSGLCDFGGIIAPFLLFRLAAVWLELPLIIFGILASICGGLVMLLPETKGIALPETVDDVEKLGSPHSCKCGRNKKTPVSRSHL
In short: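 IC50 values were fitted with a Hill equation from net uptake, calculated as uptake in overexpressing HEK293 cells minus empty-vector control uptake. Cells were exposed for 5 min to 2 μM model substrate alone, with 20 μM inhibitor, or with a concentration series. Uptake was quantified by ASP^+ fluorescence or LC–MS/MS after lysis in 80% acetonitrile.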

[4] = human, pH 7.4, probe (S,S)-ethambutol (2 μM), (S,S)-Ethambutol inhibition [%], OCT1, 20 μM inhibitor, 2 μM (S,S)-ethambutol, 5 min
[5] = human, pH 7.4, probe ASP+ (2 μM), OCT1, 20 μM inhibitor, 2 μM ASP+, 5 min, mean of three experiments, read-out: ASP+ inhibition [%]
[6] = human, pH 7.4, probe sumatriptan (2 μM), OCT1, 20 μM inhibitor, 2 μM sumatriptan, 5 min, read-out: Sumatriptan inhibition [%]
[7] = human, OCT2-overexpressing HEK293 cells, pH 7.4, probe (S,S)-ethambutol (2 μM), (S,S)-Ethambutol inhibition [%], 2 μM (S,S)-ethambutol, 5 min
[8] = human, OCT2-overexpressing HEK293 cells, pH 7.4, probe ASP+ (2 μM), ASP+ inhibition [%], 2 μM ASP+, 5 min
[9] = human, OCT2-overexpressing HEK293 cells, pH 7.4, probe N-ethyllidocaine (2 μM), N-Ethyllidocaine inhibition [%], 2 μM N-ethyllidocaine, 5 min
[10] = HEK293, 5 min, read-out: (S)-Zolmitriptan inhibition [%], OCT3, 20 μM inhibitor, 2 μM (S)-zolmitriptan, 5 min
[11] = HEK293, 5 min, read-out: (S,S)-Ethambutol inhibition [%], OCT3, 20 μM inhibitor, 2 μM (S,S)-ethambutol, 5 min
[12] = HEK293, OCT3, 20 μM inhibitor, 2 μM ASP+, 5 min, read-out: ASP+ inhibition [%]
[13] = OCT1, 20 μM inhibitor, 2 μM (S,S)-ethambutol, 5 min
[14] = OCT1, 20 μM inhibitor, 2 μM ASP+, 5 min, mean of three experiments
[15] = OCT1, 20 μM inhibitor, 2 μM sumatriptan, 5 min
[16] = OCT3, 20 μM inhibitor, 2 μM (S)-zolmitriptan, 5 min
[17] = OCT3, 20 μM inhibitor, 2 μM (S,S)-ethambutol, 5 min
[18] = OCT3, 20 μM inhibitor, 2 μM ASP+, 5 min
[19] = IC50, OCT2, Table S5, 2 μM ASP+ as model substrate, 5 min

Structure (SMILES) | inhibition at 5 min, 20 μM [1, 4] [%] | inhibition at 5 min, 20 μM [1, 5] [%] | inhibition at 5 min, 20 μM [1, 6] [%] | inhibition at 5 min, 20 μM [2, 7] [%] | inhibition at 5 min, 20 μM [2, 8] [%] | inhibition at 5 min, 20 μM [2, 9] [%] | inhibition at 20 µM [3, 10] [%] | inhibition at 20 µM [3, 11] [%] | inhibition at 20 µM [3, 12] [%] | (S,S)-Ethambutol inhibition [%] [1, 13] [%] | ASP+ inhibition [%] [1, 14] [%] | Sumatriptan inhibition [%] [1, 15] [%] | (S,S)-Ethambutol inhibition [%] ([2]; 2 μM (S,S)-ethambutol, 5 min) | ASP+ inhibition [%] ([2]; 2 μM ASP+, 5 min) | N-Ethyllidocaine inhibition [%] ([2]; 2 μM N-ethyllidocaine, 5 min) | (S)-Zolmitriptan inhibition [%] [3, 16] [%] | (S,S)-Ethambutol inhibition [%] [3, 17] [%] | ASP+ inhibition [%] [3, 18] [%] | further results
CCCCN1CCCC[C@H]1C(=O)Nc1c(C)cccc1C [(S)-Bupivacaine] | 50.6 | 23.5 | 43.9 | 38.5 | 43.1 | 50.2 | 37.2 | 33.4 | 24.3 |  |  |  |  |  |  |  |  |  | IC50 ([1]; OCT1, Table 1): 18.7 µM; selectivity ratio at 5 min ([1]; human, pH 7.4, OCT1, Table S5): 1.8; IC50 ([2]; IC50 [μM], OCT2, Table 1): 48.4 µM; selectivity ratio at 5 min ([2]; human, OCT2-overexpressing HEK293 cells, pH 7.4): 2.3
COc1ccccc1OCCNC[C@H](O)COc1cccc2[nH]c3ccccc3c12 [(S)-Carvedilol] | 100 | 74.5 | 96.5 | 8.7 | 94.9 | 48.8 | 32.8 | 49.5 | 16.3 |  |  |  |  |  |  |  |  |  | 
N[C@H]1CONC1=O [(S)-Cycloserine] |  |  |  |  |  |  |  |  |  | 0.3 | -2.6 | 35.9 | 0.8 | 14.6 | 14.6 | 6.3 | 12.2 | 19.3 | 
C#CCN(C)[C@@H](C)Cc1ccccc1 [(S)-Deprenyl] |  |  |  |  |  |  |  |  |  |  | 26.1 |  |  | 88.0 | 47.7 |  |  | 9.6 | Sumatriptan inhibition [%] ([1]; human, pH 7.4): 68.6%; IC50 [2, 19]: 3.4 µM; selectivity ratio ([2]; human, pH 7.4): 1.4; (S)-Zolmitriptan inhibition [%] [3]: 11.5%; (S,S)-Ethambutol inhibition [%] [3]: 20.9%
CN(C)CCO[C@@](C)(c1ccccc1)c1ccccn1 [(S)-Doxylamine] |  |  |  |  |  |  |  |  |  | 86.5 | 51.7 | 88.2 | 26.3 | 64.3 | -17.1 | 33.8 | 35.8 | 7.4 | IC50 ([1]; OCT1, Table S5, 2 μM ASP+ or ethambutol as model substrate, 5 min): 32.2 µM; selectivity ratio at 5 min ([1]; human, pH 7.4, OCT1, Table S5): 1.4
OC[C@@H](O)CN1CCN(c2ccccc2)CC1 [(S)-Dropropizine] |  |  |  |  |  |  |  |  |  | 27.4 | 24.6 | 30.4 | 20.5 | 51.1 | 7.5 | -17.1 | 6.7 | 29.1 | IC50 [2, 19]: 55.6 µM
CNCC[C@H](Oc1cccc2ccccc12)c1cccs1 [(S)-Duloxetine] | 86.9 | 43.3 | 88.5 | 19.4 | 70.2 | 46.1 |  |  |  |  |  |  |  |  |  |  |  |  | IC50 ([2]; IC50): 16.6 µM; inhibition at 20 µM ([3]; HEK293, 5 min, read-out: (S)-Zolmitriptan inhibition [%]): 19.6%; inhibition at 20 µM ([3]; HEK293, 5 min, read-out: (S,S)-Ethambutol inhibition [%]): 25.2%; inhibition at 20 µM ([3]; HEK293, read-out: ASP+ inhibition [%]): 2.4%
CNCC[C@H](Oc1ccc(C(F)(F)F)cc1)c1ccccc1 [(S)-Fluoxetine] |  |  |  |  |  |  |  |  |  | 78.6 | 47.7 | 82.3 | 6.4 | 56.6 | 28.7 |  |  |  | (S)-Zolmitriptan inhibition [%] [3]: 13.8; (S,S)-Ethambutol inhibition [%] [3]: 12.3; ASP+ inhibition [%] [3]: -3.1
CC(C)Cc1ccc([C@H](C)C(=O)O)cc1 [(S)-Ibuprofen] | -10.6 | 8.8 | -3.4 | 14.5 | 10.9 | 10.4 | -0.8 | 11.3 | 12.9 |  |  |  |  |  |  |  |  |  | 
